The values that follow come from patent publication US12667087B2, “Methods of treatment with aminolevulinic acid synthase 2 (ALAS2) modulators” (Agios Pharmaceuticals, Inc., priority 2019, dated 2026).

In the first assay the target is T1, wild type ALAS2 (Homo sapiens, UniProt P22557).
T1 construct: MBP (TEV-cleavable) (C, cleaved yes); made in house; host or cells: E. coli
T1 sequence (P22557 79-587): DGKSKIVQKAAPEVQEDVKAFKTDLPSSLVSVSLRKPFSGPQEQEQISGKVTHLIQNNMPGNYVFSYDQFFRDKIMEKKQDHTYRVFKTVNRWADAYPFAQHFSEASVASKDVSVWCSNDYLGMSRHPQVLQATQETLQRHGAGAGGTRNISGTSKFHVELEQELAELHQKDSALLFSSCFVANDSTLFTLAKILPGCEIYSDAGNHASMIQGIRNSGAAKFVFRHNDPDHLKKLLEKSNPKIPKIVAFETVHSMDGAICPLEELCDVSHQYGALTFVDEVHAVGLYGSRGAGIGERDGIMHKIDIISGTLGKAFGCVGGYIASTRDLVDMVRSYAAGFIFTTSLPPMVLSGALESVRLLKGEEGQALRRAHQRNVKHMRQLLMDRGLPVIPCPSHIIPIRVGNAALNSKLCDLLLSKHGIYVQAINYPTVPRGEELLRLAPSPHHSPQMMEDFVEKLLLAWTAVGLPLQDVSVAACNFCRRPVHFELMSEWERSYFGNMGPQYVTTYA
Description: General IC50 assay, version 1 (5 ug/mL ALAS2), ALA by mass spectrometry. The class given is biochemical. The settings on record: version 1 assay: 5 ug/mL ALAS2, 0 uM PLP, 1 h reaction. As for the experimental part:
(§1) The exemplified compounds in Table I were tested in vitro against the wild type ALAS2. As described in Example 38, two concentrations of ALAS2 were used: 5 ug/mL ALAS2 (for the version I assay) and 2 ug/mL (for the version 2 assay). “A” refers to an IC50 less than 10.0 μM; “B” refers to an IC50 from 10.0 μM to 50.0 μM; and “C” refers to an AC50 greater than 50.0 μM.
(§2) ALAS2 sequence (see FIG. 8) (residues 79-587) was expressed in E. coli as a TEV cleavable C-terminally MBP tagged construct. Purification steps included an amylose column, followed by MBP tag cleavage and passage through a Ni-NTA column to remove cleaved MBP. ALAS2 was further purified and exchanged into storage buffer (50 mM Tris, 500 mM NaCl, 1 mM DTT, 10 μM PLP, pH 8.0) by size exclusion through a Superdex 200 column and stored at −80° C.
(§3) Preparation of stock solutions: All solutions were prepared by standard methods with the exception of glycine and succinyl CoA. A 1 M solution of glycine was prepared and the pH adjusted to 8.0 by addition of […]. A 1 mM solution of succinyl CoA was prepared in 20 mM phosphoric acid, pH 2.0 to ensure its stability to hydrolysis.
(§4) Routine compound testing for IC50 measurements: Assays were carried out in 96-well V-bottom polypropylene plates (Greiner-Bio cat. no. 651201) at room temperature. Test compound dilution series and DMSO blanks (1 μL) were dispensed into the 96-well plates. A solution of 1.1× assay mix was prepared to contain, in the final 1× assay conditions: 5 μg/mL ALAS2 (for the version 1 assay) or 2 ug/mL (for the version 2 assay), 20 mM sodium phosphate pH 8.0, 3.5 mM glycine, 1 mM MgCl2, 30 mM NaCl, 0.03% BSA, 1 mM EDTA. Assay mix (45 μL) was added to each well, and compound and assay mix were pre-incubated for 1 h at room temperature. Assays were then initiated by addition of 5 μL 1 mM succinyl CoA to each well to give a final concentration of 100 μM. Reactions proceeded for 1 h (version 1 assay) or 2 h (version 2 assay) at room temperature, then were quenched by addition of 200 μL acetonitrile containing 1% formic acid and 0.2 μg/mL ^13C, ^15N aminolevulinic acid (ALA) as an internal standard. The plates were centrifuged at 4° C. for 1 min at 3500 rpm, then 200 μL of supernatant was transferred to a fresh 96-well plate for detection of ALA by high throughput mass spectrometry.
(§5) Measurement of ALA concentration by high throughput mass spectrometry: ALA was monitored in positive mode on a Sciex QTRAP 6500 connected to a Shimadzu 20AD LC using the conditions outlined in the table below. Samples were transferred from the assay plate and loaded onto a ZIC HILIC Trap column (Optimize Technologies, 4 μL, 10 μM) at a flow rate of 1.2 mL/min in 99% acetonitrile, 1% ddH2O containing 0.5% formic acid to remove nonvolatile components with a 6 s desalt cycle. Analytes were eluted with 95% acetonitrile, 5% ddH2O containing 0.5% formic acid in 12 s elution cycles. Concentrations of ALA in each sample were measured by comparison to an authentic standard curve, and IC50s were determined by fitting to the log(compound) vs. response equation Y=bottom+(top−bottom)/(1+10^((log IC50-X)*HillSlope)).
Take `CC(C)N(N)c1nnn[nH]1` [Compound 62]: the “IC50 (uM) ALAS2 v1; 0 uM PLP” value was “No Fit”. `CN(N)c1snnc1-c1ccccc1` [Compound 16]: the “IC50 (uM) ALAS2 v1; 0 uM PLP” value is listed as “No Fit”.

The same assay, now with this note: version 1 assay: 5 ug/mL ALAS2, 0 uM PLP, 1 h reaction; read-out: IC50 (uM) ALAS2 v1; 0 uM PLP.
For `CCN(N)c1noc(=O)[nH]1` [Compound 38], the IC50 was less than 10 µM. Still for that read-out and setting: under `NN(CCO)c1nnn[nH]1` [Compound 56] stands greater than 50 µM; under `NNc1nc(-c2ccccc2)cs1` [Compound 26], greater than 50 µM; under `Cn1c(NN)nnc1-c1ccccc1` [Compound 30], greater than 50 µM. As to `Cc1ccccc1-c1nnc(NN)[nH]1` [Compound 11], the IC50 is less than 10 µM. Regarding `CC(C)n1ccc(NN)n1` [Compound 32], the IC50 was less than 10 µM. Turning to `NNc1nc(CO)cs1` [Compound 53], the IC50 was in the range of 10 to 50 µM. With `COCc1cnc(NN)s1` [Compound 41], the half-inhibitory concentration (IC50) was greater than 50 µM.

Regarding `NNc1nnc(O)[nH]1` [Compound 50], the IC50 was greater than 50 µM. Still for that read-out and setting: under `NNc1nc(N2CCOCC2)n[nH]1` [Compound 14] stands 10 to 50 µM; under `Cc1nc(NN)sc1C(=O)O` [Compound 54], 10 to 50 µM. Take `NNc1nnc(C(F)(F)F)[nH]1` [Compound 44]: the IC50 was less than 10 µM. Consider `COCc1cnc(N(N)C(=O)C(F)(F)F)s1` [Compound 51], for which the half-inhibitory concentration (IC50) was greater than 50 µM.

For the compound `CN(N)c1n[nH]c(=O)[nH]1` [Compound 43], the 50% inhibitory concentration (IC50) is less than 10 µM. Still for that read-out and setting: under `Cn1cnnc1NN` [Compound 58] stands greater than 50 µM; under `NNc1ccn(CC(F)F)n1` [Compound 33], 10 to 50 µM; under `NNc1nnc(-c2ccccc2)s1` [Compound 27], less than 10 µM. Same read-out and setting: under `NNc1nc(-c2ccc(N)cc2)cs1` [Compound 17] stands greater than 50 µM.

Regarding `NNc1cc(C(F)(F)F)n[nH]1` [Compound 28], the 50% inhibitory concentration (IC50) was in the range of 10 to 50 µM. For `CCOC(=O)c1sc(NN)nc1C` [Compound 57], the IC50 lay within 10 to 50 µM. Same read-out and setting: under `NNc1nc(-c2ccccn2)no1` [Compound 6] stands 10 to 50 µM. On the same count and under the same terms, then `CCN(N)c1nnn[nH]1` [Compound 63], with greater than 50 µM; and `NN(c1nnn[nH]1)C1CC1` [Compound 61], with greater than 50 µM; and `NNc1nc(-c2ccc(F)cc2)no1` [Compound 8], with 10 to 50 µM. As for `NNc1n[nH]nc1C(F)(F)F` [Compound 39], the IC50 is less than 10 µM. On to `N#Cc1cnc(NN)s1` [Compound 48], for which the half-maximal inhibitory concentration (IC50) is 10 to 50 µM. Take `NNc1ccn(CC(F)(F)F)n1` [Compound 31]: the IC50 was greater than 50 µM. With `NNc1nnc[nH]1` [Compound 66], the IC50 was less than 10 µM.

Take `NNc1cc(-c2ccccc2)[nH]n1` [Compound 9]: the IC50 lay in the range of 10 to 50 µM.

As to `NNc1ccn(-c2ccccc2)n1` [Compound 10], the IC50 is 10 to 50 µM. Regarding `NNc1nc(-c2ccncc2)no1` [Compound 20], the half-inhibitory concentration (IC50) was less than 10 µM. On the same count and under the same terms, under `NNc1nnc(C2CCC2)[nH]1` [Compound 12] stands greater than 50 µM; under `NNc1nnc(C(F)(F)F)s1` [Compound 29], less than 10 µM.

In the case of `NNc1nnnn1-c1ccccc1` [Compound 15], the IC50 was greater than 50 µM. The same measure, in the same setting: under `NNc1ccn(CC(=O)O)n1` [Compound 35] stands less than 10 µM. Consider `NNc1nnc(-c2ccccc2)[nH]1` [Compound 34], for which the IC50 was less than 10 µM. As to `CCCN(N)c1nnn[nH]1` [Compound 60], the IC50 is greater than 50 µM. Still for that read-out and setting: under `NNc1nc(-c2ccco2)cs1` [Compound 18] stands greater than 50 µM. Regarding `NNc1nnco1` [Compound 47], the IC50 is greater than 50 µM. Same read-out and setting: then `CCCc1nnc(NN)[nH]1` [Compound 13], with 10 to 50 µM; and `CN(N)c1nnnn1Cc1ccccc1` [Compound 65], with greater than 50 µM.

Take `Cn1nnnc1NN` [Compound 55]: the IC50 was greater than 50 µM. As to `CN(N)c1nnn[nH]1` [Compound 64], the IC50 is less than 10 µM.

Regarding `COc1ccc(-c2nnc(NN)s2)cc1` [Compound 24], the IC50 fell in the range of 10 to 50 µM. Regarding `CN(N)c1nnc(C(F)(F)F)[nH]1` [Compound 36], the IC50 is less than 10 µM. Still for that read-out and setting: under `Cc1nc(C#N)c(NN)o1` [Compound 52] stands greater than 50 µM; under `NNc1nnc(-c2ccccn2)s1` [Compound 22], less than 10 µM; under `NNc1cc(-c2ccncc2)[nH]n1` [Compound 7], 10 to 50 µM.

As for `NNc1nnn[nH]1` [Compound 67], the IC50 is less than 10 µM.

On to `NNc1nc(-c2cccnc2)no1` [Compound 19], for which the IC50 was less than 10 µM.

For the compound `N#Cc1ncoc1NN` [Compound 59], the IC50 is greater than 50 µM.

On to `NNc1ncc(C(=O)O)s1` [Compound 49], for which the half-maximal inhibitory concentration (IC50) is greater than 50 µM. As to `CCOC(=O)c1[nH]cnc1NN` [Compound 46], the IC50 was less than 10 µM. The same measure, in the same setting: then `Cc1cnc(NN)s1` [Compound 40], with less than 10 µM; and `NNc1nnc(C2CC2)s1` [Compound 25], with greater than 50 µM. The same measure, in the same setting: then `NNc1nc(-c2ccccc2)no1` [Compound 21], with less than 10 µM; and `CN(N)c1n[nH]nc1C(F)(F)F` [Compound 37], with 10 to 50 µM; and `CN(N)c1noc(=O)[nH]1` [Compound 45], with less than 10 µM.

Consider `Cc1csc(NN)n1` [Compound 42], for which the IC50 was greater than 50 µM. On the same count and under the same terms, under `NNc1nc(C(F)(F)F)cs1` [Compound 23] stands greater than 50 µM.

The target of another assay is T1, wild type ALAS2. Description: General IC50 assay, version 2 (2 ug/mL ALAS2), ALA by mass spectrometry. In kind it is biochemical. The settings on record: version 2 assay: 2 ug/mL ALAS2, 0 uM PLP, 2 h reaction, read-out: IC50 (uM) ALAS2 v2. As for the experimental part:
as §1, §2, §3, §4, §5
As to `NNc1nc(-c2ccnc3ccccc23)no1` [Compound 1], the IC50 is less than 10 µM.

For `NNc1nc(-c2cccc(C(F)(F)F)c2)no1` [Compound 3], the IC50 is greater than 50 µM.

`NNc1nc(-c2ccc3ccccc3c2)no1` [Compound 2]: the IC50 was less than 10 µM. On the same count and under the same terms, under `COc1ccc(-c2noc(NN)n2)cc1` [Compound 5] stands 10 to 50 µM. On the same count and under the same terms, under `NNc1nc(-c2ccc(C(F)(F)F)cc2)no1` [Compound 4] stands 10 to 50 µM.
